Results as given in EPA's ToxRefDB 2.

What was measured:
[1] = tested on: rat; conditions: Prenatal developmental toxicity study, sprague dawley, Oral, Gavage/Intubation, dose end: 17 GD
[2] = tested on: rat; conditions: Prenatal developmental toxicity study; sprague dawley; Oral; Gavage/Intubation; dose end: 17 GD; group: maternal; systemic / in life observation / body weight / body weight gain
[3] = tested on: rat; conditions: Chronic toxicity, sprague dawley, Oral, Gavage/Intubation, dose end: 6 month, group: systemic
[4] = tested on: rabbit; conditions: Prenatal developmental toxicity study, new zealand white, Oral, Gavage/Intubation, dose end: 19 GD
[5] = tested on: rat; conditions: Sub-acute repeat dose toxicity; sprague dawley; Oral; Gavage/Intubation; dose end: 4 week; group: systemic; systemic / hematology / blood clotting / blood clotting - activated partial thromboplastin time + systemic / hematology / blood clotting / …
[6] = tested on: rat; conditions: Fertility (Segment I); sprague dawley; Oral; Gavage/Intubation; dose end: 7 GD; group: parental; systemic / in life observation / food consumption / food consumption + systemic / organ weight / uterus / nos
[7] = tested on: rabbit; conditions: Prenatal developmental toxicity study, new zealand white, Oral, Gavage/Intubation, dose end: 19 GD; remark: listed apart in the source
[8] = tested on: dog; conditions: Subchronic oral toxicity in nonrodent, beagle, Gavage/Intubation, dose end: 3 month, group: systemic, systemic / hematology / blood clotting / blood clotting - activated partial thromboplastin time + systemic / hematology / blood clotting / …
[9] = tested on: dog; conditions: Sub-acute repeat dose toxicity; beagle; Oral; Gavage/Intubation; dose end: 4 week; group: systemic; systemic / hematology / blood clotting / blood clotting - prothrombin time + systemic / hematology / blood clotting / blood clotting - …
[10] = tested on: mouse; conditions: Subchronic oral toxicity in rodents, other, Feed, dose end: 13 week, group: systemic, systemic / clinical chemistry / [other] / [other] + systemic / clinical chemistry / alderin epoxidase / alderin epoxidase + systemic / …
[11] = tested on: mouse; conditions: Combined chronic toxicity/carcinogenicity; other; Oral; Feed; dose end: 104 week; group: systemic; systemic / pathology microscopic / blood / leukemia + systemic / pathology microscopic / blood / lymphoma nos + systemic / pathology …
[12] = tested on: rat; conditions: Subchronic oral toxicity in rodents, sprague dawley, Gavage/Intubation, dose end: 13 week, group: systemic, systemic / clinical chemistry / thyroxine (t4) / thyroxine (t4), total + systemic / organ weight / thyroid gland / absolute + systemic / …
[13] = tested on: rabbit; conditions: Prenatal developmental toxicity study, new zealand white, Oral, Gavage/Intubation, dose end: 19 GD; remark: listed apart in the source
[14] = tested on: rat; conditions: Subchronic dermal toxicity, sprague dawley, Topical, dose end: 21 day, group: systemic
[15] = tested on: mouse; conditions: Combined chronic toxicity/carcinogenicity, cd1, Oral, Gavage/Intubation, dose end: 24 month, group: systemic
[16] = tested on: rat; conditions: Multigenerational reproductive toxicity study, other, Oral, Gavage/Intubation, dose end: 2 generation
[17] = tested on: dog; conditions: Chronic toxicity; beagle; Oral; Capsule; dose end: 52 week; group: systemic; systemic / in life observation / body weight / body weight gain + systemic / in life observation / clinical signs / salivation + systemic / …
[18] = tested on: rat; conditions: Subchronic oral toxicity in rodents, sprague dawley, Gavage/Intubation, dose end: 13 week, group: systemic
[19] = tested on: rat; conditions: Combined chronic toxicity/carcinogenicity; Oral; Gavage/Intubation; dose end: 104 week; group: systemic; systemic / in life observation / body weight / body weight gain + systemic / in life observation / water consumption / water consumption + …
[20] = tested on: rat; conditions: Prenatal developmental toxicity study, Charles River COBS CD rats, Oral, Gavage/Intubation, dose end: 20 GD
[21] = tested on: dog; conditions: Subchronic oral toxicity in nonrodent, beagle, Capsule, dose end: 13 week, group: systemic
[22] = group: developmental, developmental / developmental malformation / bone / supernumerary
[23] = group: maternal, systemic / in life observation / body weight / body weight gain + systemic / in life observation / food consumption / food consumption
[24] = systemic / hematology / blood clotting / blood clotting - activated partial thromboplastin time + systemic / hematology / blood clotting / …
[25] = systemic / in life observation / body weight / body weight gain + systemic / organ weight / pituitary gland / relative to body weight + …
[26] = group: developmental, systemic / in life observation / body weight / fetal weight
[27] = group: maternal, systemic / in life observation / body weight / body weight gain + systemic / in life observation / food consumption / food consumption + …
[28] = group: developmental, developmental / developmental malformation / general / [other] + systemic / in life observation / body weight / fetal weight
[29] = group: maternal, systemic / in life observation / body weight / body weight gain + systemic / in life observation / clinical signs / alopecia + systemic / in…
[30] = group: developmental, developmental / developmental malformation / brain / hydrocephaly + developmental / developmental malformation / mouth / jaw / cleft palate…
[31] = systemic / clinical chemistry / triiodothyronine (t3) / triiodothyronine (t3), total
[32] = systemic / organ weight / ovary / absolute + systemic / organ weight / ovary / relative to body weight + systemic / organ weight / adrenal …
[33] = group: offspring, systemic / in life observation / clinical signs / reduced body size
[34] = group: parental, systemic / in life observation / body weight / body weight gain
[35] = systemic / organ weight / liver / absolute + systemic / in life observation / body weight / body weight gain + systemic / in life …
[36] = group: developmental, systemic / in life observation / body weight / offspring (pup) weight
[37] = group: maternal, systemic / in life observation / body weight / body weight gain + systemic / in life observation / clinical signs / salivation
[38] = systemic / in life observation / clinical signs / watery stools

With `O=C([O-])c1ccc2c(c1)nc(C(=O)NC1CCN(C3CC3)CC1)n2Cc1cc(-c2ccc(Cl)s2)on1.[Na+]` [AVE3247] the LEL [1, 22] was 500 mg/kg/day, the LOAEL [1, 22] was 500 mg/kg/day and the NEL [1, 22] was 200 mg/kg/day. The NOAEL [1, 22] was 200 mg/kg/day, the LEL [1, 23] was 2000 mg/kg/day and the LOAEL [1, 23] was 2000 mg/kg/day. For the same compound, the NEL [1, 23] was 500 mg/kg/day, the NOAEL [1, 23] was 500 mg/kg/day and the LEL [2] was 2000 mg/kg/day. The LOAEL [2] was over 2000 mg/kg/day, the NEL [2] was 1000 mg/kg/day and the NOAEL [2] was at least 2000 mg/kg/day. It also gave an LEL [3, 24] of 200 mg/kg/day, an NEL [3, 24] of under 200 mg/kg/day and an LOAEL [3, 25] of 2000 mg/kg/day. The NOAEL [3, 25] was 500 mg/kg/day, the LEL [4, 26] was 2000 mg/kg/day and the LOAEL [4, 26] was 2000 mg/kg/day. For the same compound, the NEL [4, 26] was 500 mg/kg/day, the NOAEL [4, 26] was 500 mg/kg/day and the LEL [4, 23] was 500 mg/kg/day. The LOAEL [4, 23] was 500 mg/kg/day, the NEL [4, 27] was 200 mg/kg/day and the NOAEL [4, 27] was 200 mg/kg/day. For the same compound, the LEL [5] was 200 mg/kg/day, the LOAEL [5] was over 2000 mg/kg/day and the NEL [5] was under 200 mg/kg/day. For the same compound, the NOAEL [5] was at least 2000 mg/kg/day, the LEL [6] was 2000 mg/kg/day and the LOAEL [6] was over 2000 mg/kg/day. It also gave an NEL [6] of 500 mg/kg/day, an NOAEL [6] of at least 2000 mg/kg/day and an LEL [7, 28] of 2000 mg/kg/day. For the same compound, the LOAEL [7, 28] was over 2000 mg/kg/day, the NEL [7, 28] was 1000 mg/kg/day and the NOAEL [7, 28] was at least 2000 mg/kg/day. The LEL [7, 29] was 500 mg/kg/day, the LOAEL [7, 29] was 1000 mg/kg/day and the NEL [7, 29] was under 500 mg/kg/day. The NOAEL [7, 29] was 500 mg/kg/day, the LEL [8] was 10 mg/kg/day and the LOAEL [8] was over 80 mg/kg/day. The NEL [8] was under 10 mg/kg/day, the NOAEL [8] was at least 80 mg/kg/day and the LEL [9] was 10 mg/kg/day. For the same compound, the LOAEL [9] was over 100 mg/kg/day, the NEL [9] was under 10 mg/kg/day and the NOAEL [9] was at least 100 mg/kg/day.
`CC(=O)O[C@]1(C(C)=O)CC[C@H]2[C@@H]3C=C(Cl)C4=CC(=O)[C@@H]5C[C@@H]5[C@]4(C)[C@H]3CC[C@@]21C` [Cyproterone acetate] gave an LEL [10] of 125 mg/kg/day, an LOAEL [10] of over 125 mg/kg/day and an NEL [10] of under 125 mg/kg/day. It also gave an NOAEL [10] of at least 125 mg/kg/day, an LEL [11] of 120 mg/kg/day and an LOAEL [11] of over 120 mg/kg/day. For the same compound, the NEL [11] was under 120 mg/kg/day and the NOAEL [11] was at least 120 mg/kg/day.
Work on `S=C([S-])NCCNC(=S)[S-].[Na+].[Na+]` [Nabam-sodium] yielded an LEL [12] of 80 mg/kg/day, an LOAEL [12] of 80 mg/kg/day and an NEL [12] of 0.8 mg/kg/day. It also gave an NOAEL [12] of 0.8 mg/kg/day, an LEL [13, 30] of 2.62 mg/kg/day and an LOAEL [13, 30] of 2.62 mg/kg/day. The NEL [13, 30] was 0.328 mg/kg/day, the NOAEL [13, 30] was 0.328 mg/kg/day and the LEL [13, 27] was 32.8 mg/kg/day. It also gave an LOAEL [13, 27] of 32.8 mg/kg/day, an NEL [13, 27] of 2.62 mg/kg/day and an NOAEL [13, 27] of 2.62 mg/kg/day. It also gave an LEL [14, 31] of 15 mg/kg/day, an NEL [14, 31] of under 15 mg/kg/day and an NOAEL ([14]; systemic / clinical chemistry / triiodothyronine (t3) / triiodothyronine (t3), total + systemic / in life observation / clinical signs / …) of 15 mg/kg/day. It also gave an LOAEL ([14]; systemic / in life observation / clinical signs / erythema) of 150 mg/kg/day.
Compound `CC1(C)[C@H](C(=O)O[C@H](C#N)c2cccc(Oc3ccccc3)c2)[C@@H]1C(Br)C(Br)(Br)Br` (stereo partly drawn) [Tralomethrin] has an LEL [15, 32] of 0.75 mg/kg/day, an NEL [15, 32] of under 0.75 mg/kg/day and an LOAEL ([15]; systemic / pathology gross / skin / lesion(s) (nos)) of 3 mg/kg/day. The NOAEL ([15]; systemic / pathology gross / skin / lesion(s) (nos) + systemic / in life observation / clinical signs / abnormal motor movement + systemic…) was 0.75 mg/kg/day, the LEL [16, 33] was 0.75 mg/kg/day and the LOAEL [16, 33] was 0.75 mg/kg/day. The NEL [16, 33] was under 0.75 mg/kg/day, the NOAEL [16, 33] was under 0.75 mg/kg/day and the LEL [16, 34] was 3 mg/kg/day. For the same compound, the LOAEL [16, 34] was 3 mg/kg/day, the NEL [16, 34] was 0.75 mg/kg/day and the NOAEL [16, 34] was 0.75 mg/kg/day. For the same compound, the LEL [17] was 3 mg/kg/day, the LOAEL [17] was 3 mg/kg/day and the NEL [17] was 1 mg/kg/day. It also gave an NOAEL [17] of 1 mg/kg/day, an LOAEL ([18]; systemic / organ weight / liver / absolute) of 6 mg/kg/day and an LEL ([18]; systemic / organ weight / liver / absolute + systemic / in life observation / body weight / body weight gain) of 6 mg/kg/day. The NEL [18, 35] was 1 mg/kg/day, the NOAEL [18, 35] was 1 mg/kg/day and the LEL [19] was 3 mg/kg/day. It also gave an LOAEL [19] of 3 mg/kg/day, an NEL [19] of 0.75 mg/kg/day and an NOAEL [19] of 0.75 mg/kg/day. The LEL [20, 36] was 12 mg/kg/day, the LOAEL [20, 36] was over 12 mg/kg/day and the NEL [20, 36] was 3 mg/kg/day. It also gave an NOAEL [20, 36] of at least 12 mg/kg/day, an LOAEL ([20]; group: maternal, systemic / in life observation / body weight / body weight gain + reproductive / offspring survival early / birth index / live birth index) of 12 mg/kg/day and an LEL ([20]; group: maternal, systemic / in life observation / body weight / body weight gain + reproductive / offspring survival early / birth index / live birth index…) of 12 mg/kg/day. The NEL [20, 37] was 3 mg/kg/day, the NOAEL [20, 37] was 3 mg/kg/day and the LOAEL ([21]; systemic / hematology / erythrocyte (rbc) count differential / erythrocyte (rbc) + systemic / hematology / hemoglobin (hgb) / hemoglobin (…) was 10 mg/kg/day. It also gave an LEL [21, 38] of 0.1 mg/kg/day, an NEL [21, 38] of under 0.1 mg/kg/day and an NOAEL ([21]; systemic / in life observation / clinical signs / watery stools + systemic / hematology / erythrocyte (rbc) count differential / erythrocyte…) of 1 mg/kg/day.
